Experiments:
Format in all cases: physicochemical
[1] = pH solubility study (100 mM citric acid, titrated with NaOH, shaken overnight at room temperature, filtered, HPLC); conditions: for Cmp. A.H2SO4 Concentration: no excess solid, not saturation solubility
Procedure: A pH solubility study was performed to assess the feasibility of formulating a compound having Formula (I) as a simple buffered solution at a reasonable pH for a nasal formulation.
Methodology: A compound having Formula (I) and H2SO4 solution of concentration ˜107 mg/mL in 100 mM citric acid at pH 2.5 was prepared. About 150 μL aliquots of this solution were transferred into 6 separate glass HPLC vials. All the samples, including the solution at pH 2.5, were shaken overnight at room temperature using a gyratory shaker. After shaking, the samples were evaluated visually for the presence of precipitate and were then spin filtered through 0.45 μm syringe tip filters (4 mm diameter) at 3000 rpm for 20 min. The final pH values of the filtrates were measured. The filtrates were then diluted appropriately and analyzed for compound having Formula (I). H2SO4 concentration using the HPLC assay.
Results: The pH values of the samples prior to and after shaking overnight, appearance as well as concentrations of samples are shown in Table 12.

[2] = Drug substance stability (API in closed Type I glass vials at 40° C. and 60° C.)
Procedure: Methodology: Approximately 100 mg of the API (Lot 009M9B058) were stored at each of 40° C. and 60° C. in closed Type I glass vials. Samples were analyzed for appearance and percent purity at T0 and after 1 week, 2 weeks and 4 weeks of storage.
Visually, there were no signs of degradation (i.e. discoloration etc.).

[3] = Stability as a function of pH, narrow range (pH 2-3.6, ~10 mM citric acid and glycine buffers, 1 mg/mL); conditions: Target pH 2.0; 40° C. Storage 4 wk; listed as Cmp. A
Procedure: Accordingly, the stability of the compound was evaluated in the pH range 2-3.6.
Methodology: Buffer solutions containing ˜10 mM each of citric acid and glycine in the pH range 2-3.6 were prepared by titrating 250 mL of a single stock containing both buffer agents with 1N NaOH/1N HCl and removing 50 mL aliquots at predetermined pH values. Solutions at 1 mg/mL were prepared in the buffers by dissolving ˜25 mg of compound in ˜23 mL of a given buffer, adjusting the pH to the target and making up the volume to 25.0 mL in a volumetric flask.
Each of the buffered solutions was filtered through a […] polyether sulfone syringe filter into a volumetric flask previously rinsed with 70% ethanol and dried in a laminar flow hood. Following filtration, each buffered solution was split into 9 aliquots in 5 mL serum vials previously rinsed with 70% ethanol and dried in a laminar flow hood. Filtration and preparation of aliquots were performed in a laminar flow hood. Of the nine aliquots, three aliquots were stored at each 40° C. and 60° C., two aliquots were stored at 25° C. and one aliquot was submitted for T0 testing. Samples were evaluated for pH, assay and related substances at TO and, following 1 week, 2 weeks and 4 weeks of storage at 40° C. and 60° C. Samples stored at 25° C. served as controls to be analyzed if necessary. […]

Row | SMILES | Final pH after Shaking and Filtration ([1]; Target pH 2.5, Initial pH 2.51) | Cmp. A.H2SO4 Concentration ([1]; Target pH 2.5, Initial pH 2.51) | Final pH after Shaking and Filtration ([1]; Target pH 3.0, Initial pH 3.05) | Cmp. A.H2SO4 Concentration ([1]; Target pH 3.0, Initial pH 3.05) | Final pH after Shaking and Filtration ([1]; Target pH 3.5, Initial pH 3.51) | Cmp. A.H2SO4 Concentration ([1]; Target pH 3.5, Initial pH 3.51) | Final pH after Shaking and Filtration ([1]; Target pH 4.0, Initial pH 4.00) | Final pH after Shaking and Filtration ([1]; Target pH 4.5, Initial pH 4.55) | Final pH after Shaking and Filtration ([1]; Target pH 5.0, Initial pH 4.93) | Final pH after Shaking and Filtration ([1]; Target pH 5.5, Initial pH 5.63) | Stability of the API on storage (in words) ([2]; 4 weeks, even at 60° C.) | Purity (%) ([2]; 40° C., T = 1 week) | Purity (%) ([2]; 40° C., T = 2 week) | Purity (%) ([2]; 40° C., T = 4 week) | Purity (%) ([2]; 60° C., T = 1 week) | Purity (%) ([2]; 60° C., T = 2 week) | Purity (%) ([2]; 60° C., T = 4 week) | Purity (%) ([2]; T = 0) | Assay [3]
1 | CCCNc1nc(NCCC)nc(N(C)OC)n1 [Cmp. A.H2SO4, N-(4,6-Bis-n-propylamino-[1,3,5]triazin-2-yl)-O,N-dimethyl-hydroxylamine] | 2.42 | 104.1 mg/mL | 3.00 | 99.8 mg/mL | 3.51 | 101.6 mg/mL | 3.79 | 4.37 | 4.52 | 5.02 | quite stable | 99.92% | 99.90% | 100.00% | 99.76% | 100.00% | 100.00% | 100.00% | 
2 | CCCNc1nc(NCCC)nc(N(C)OC)n1 [Compound A, N-(4,6-Bis-n-propylamino-[1,3,5]triazin-2-yl)-O,N-dimethyl-hydroxylamine] |  |  |  |  |  |  |  |  |  |  |  |  |  |  |  |  |  |  | 0956

Source: patent US20230310440A1, “RESPIRATORY STIMULANT NASAL FORMULATIONS” (Enalare Therapeutics Inc., priority 2022, published 2023)
